Measurements reported in publication PMC12354831 (Cell Death Discovery, 2025).

Experiments:
[1] = CC50 determination (CCK-8) in normal astrocyte cell line SVGp12; assay type: cell-based; details: human, SVGp12 normal astrocyte cells, SVGp12 normal astrocytes
Procedure: The human normal astrocyte cell line SVGp12 was seeded in a 96-well plate at a density of 5 × 10^3 cells per well and incubated overnight at 37 °C in a humidified atmosphere containing 5% CO2. […] After the treatment period, 10 μL of CCK-8 reagent was added to each well, followed by an additional incubation for 1 h under the same conditions. The absorbance at 450 nm was measured using a microplate reader. In this study, the experimental group treated with TMZ or CAPE was designated as group A, the control group treated with DMSO as group B, and the blank control group without cells as group C. The cell viability rate was calculated using the formula: (A-C)/(B-C) × 100%, where A, B, and C represent the absorbance values of group A, group B, and group C, respectively.

[2] = tested on: U251-MG cell-derived xenograft; test: TMZ and CAPE levels in nude mouse xenograft tumors by LC-MS/MS; assay type: in vivo, nude mice (BALB/c-nu); details: nude mice, TMZ 40 mg/kg or CAPE 20 mg/kg every 3 days; for drug level in GLUT3-overexpressing tumors relative to controls: fasting groups (24 h fast before each dose); for drug concentration in GLUT3 overexpressing tumors relative to controls: regular diet
Procedure: TMZ and CAPE levels in tumors from nude mice were measured using LC-MS/MS. Tumor tissues were excised from the mice and homogenized. The homogenized samples were then centrifuged at maximum speed (~14,000 × g) at 4 °C for 10 min. The supernatant was collected and transferred to a new centrifuge tube.
For LC-MS/MS analysis, the supernatants were diluted to an appropriate concentration. A total of 100 µL of each sample was mixed with 100 µL of acetonitrile (or standard reagent) and 300 µL of internal standard solution (^2H3-TMZ 100 ng/mL and ^2H11-CAPE 20 ng/mL dissolved in acetonitrile). […] To ensure the stability and repeatability of the instrument analysis, QC samples were prepared and analyzed alongside the experimental samples. QC samples were inserted regularly and analyzed every 6–12 samples. Each experiment was repeated 6 times.
LC-MS/MS analyses were performed using an HPLC system (Shimadzu, LC-20A) coupled to a SCIEX Triple Quad™ 7500 mass spectrometer. The samples were separated on a Syncronis HILIC column (2.1 × 100 mm, 1.7 µm; Thermo Scientific). The mobile phases consisted of: Mobile phase A (0.1% formic acid and 2.5 mM ammonium acetate in water) and Mobile phase B (0.1% formic acid and 2.5 mM ammonium acetate in acetonitrile). Gradient elution was employed, with the flow rates and gradient conditions detailed in Table S4.
The mass spectrometry conditions were as follows: Ion source: electrospray ionization (ESI); Detection mode: positive ion mode; Scanning method: multiple reaction monitoring (MRM); Spray voltage (IS): 5500 V; Ion source temperature (TEM): 555 °C; Gas curtain pressure (CUR): 25 psi; Collision activation dissociation (CAD): MEDIUM; Nebulizer gas pressure (GS1): 55 psi; Auxiliary gas pressure (GS2): 55 psi.
All animal studies were approved and supervised by the Ethics Committee for Animal Use and Care at Peking University. Nude mice (BALB/c-nu) were purchased and maintained as previously described. For the establishment of xenograft tumor models, 1 × 10^6 U251-MG cells (either negative vector control or overexpressing GLUT3) were injected into the bilateral axillary fossae of 4-week-old nude mice. After 7 days, when palpable tumors had formed, the mice were randomly divided into six experimental groups (n = 7 per group), and treatment was initiated immediately.

GLUT3 mutants = test: TMZ/CAPE uptake by U251-MG cells stably expressing GLUT3 mutants vs WT GLUT3 (LC-MS/MS); assay type: in vitro ADME, human; details: U251-MG cells expressing GLUT3 mutants with reduced affinity vs WT GLUT3
Procedure: A total of 6 × 10^6 cells were seeded into each well of a 6 cm Petri dish and cultured at 37 °C in a humidified atmosphere containing 5% CO2 for 8 h. The cells were then washed twice with PBS (137 mM NaCl, 2.7 mM KCl, 10 mM Na2HPO4, 1.8 mM KH2PO4, pH 7.4) and incubated in transport buffer (140 mM NaCl, 5 mM KCl, 2 mM MgCl2, 2 mM CaCl2, 30 mM Tris-HCl, pH 7.4) for 15 min at 37 °C. […] Cell supernatants were collected and stored at 4 °C for subsequent extraction. The harvested cells were washed three times with PBS and extracted with 500 µL of 80% methanol for 30 min at −80 °C. The cell lysate was then centrifuged at 14,000 × g for 5 min at 4 °C, followed by 2 min of sonication. The supernatant was transferred to a new centrifuge tube. For LC-MS/MS analysis, the cell supernatants and cell lysates were diluted at a specific ratio. A total of 100 µL of each sample was mixed with 100 µL of acetonitrile (or standard reagent) and 300 µL of internal standard solution (^2H3-TMZ 100 ng/mL and ^2H11-CAPE 20 ng/mL dissolved in acetonitrile). […] Quality control (QC) samples were prepared and analyzed alongside the experimental samples to monitor the stability and repeatability of the instrument. QC samples were inserted regularly and analyzed every 6–12 samples. Each experiment was repeated 5–6 times. […]

U251-MG cells = test: CCK-8 IC50 in U251-MG cells expressing GLUT3 mutants vs WT; assay type: cell-based, human; details: GLUT3 Q159A vs GLUT3 WT
Procedure: (§1) The GBM cell line was seeded into a 96-well plate at a density of 5 × 10^3 cells per well and incubated at 37 °C in a humidified atmosphere containing 5% CO2 overnight. […] Following 24 h of drug treatment, 10 µL of CCK-8 reagent was added to each well, and the cells were incubated for an additional 1 h at 37 °C. The absorbance was then measured at 450 nm using a microplate reader.
(§2) In this study, the experimental groups were designated as Group A (cells treated with temozolomide (TMZ) or capecitabine (CAPE)), the control group as Group B (cells treated with DMSO), and the blank control group as Group C ([…]). The cell viability rate was calculated using the formula: (A-C)/(B-C) × 100%, where A, B, and C represent the absorbance values of Group A, Group B, and Group C, respectively.

U87-MG cells = test: CCK-8 IC50 determination in U87-MG cells with or without GLUT3 KD; assay type: cell-based, human; details: GLUT3 KD vs control, CCK-8, 24 h drug treatment
Procedure: as §1, §2

## CCCCCOC(=O)Nc1nc(=O)n([C@@H]2O[C@H](C)[C@@H](O)[C@H]2O)cc1F [CAPE, capecitabine]
[1]
  CC50 at 24 h: 163 ± 31.8 µM
[2]
  drug level in GLUT3-overexpressing tumors relative to controls: 3.54 fold
  drug concentration in GLUT3 overexpressing tumors relative to controls: 1.52 fold
GLUT3 mutants
  reduction in drug uptake: 75–95%
U251-MG cells
  fold increase in IC50: 3.6 fold
U87-MG cells
  fold increase of IC50 on GLUT3 knockdown: 56.5 fold

## Cn1nnc2c(C(N)=O)ncn2c1=O [TMZ]
[1]
  CC50 at 24 h: 104 ± 21.1 µM
[2]
  drug level in GLUT3-overexpressing tumors relative to controls: 1.34 fold
  drug concentration in GLUT3 overexpressing tumors relative to controls: ~ 1.95 fold
GLUT3 mutants
  reduction in drug uptake: 60–70%
U251-MG cells
  fold increase in IC50: 1.3 fold
U87-MG cells
  fold increase of IC50 on GLUT3 knockdown: 10.6 fold
